This note sets out measurements from patent US20260308159A1, “BICYCLIC HETEROARYLAMIDES HAVING GPR68 MODULATING ACTIVITY” (RECURSION PHARMACEUTICALS, INC., priority 2023, published 2026).

The experiment concerns the target T1, human GPR68 (Homo sapiens, UniProt Q15743).
T1 construct: encoding full-length human GPR68 (uniprot ID: Q15743); expressed in transfected cells; host or cells: HEK293T
The experiment in a line: GPR68 Biochemical Assay (Promega GloSensor cAMP assay, GPR68 antagonism). The experiment is classed as cell-based. The following applies: 15 min. The gist of the method: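 HEK293T cells transiently co-transfected with full-length human GPR68 and GloSensor plasmids, preloaded 60 min with GloSensor substrate in pH 8.0 buffer. Compounds (9-point half-log series, top 50 μM final, 0.5% DMSO) added with pH 5.5 buffer (~EC80-90 stimulation); luminescence read after 15 min at room temperature. IC50 from sigmoidal fit of % inhibition.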
In general terms: cAMP levels reflect the balance of adenylyl cyclase and phosphodiesterase activity.

[1] abbreviates: HEK293T cells transiently expressing hGPR68, antagonism of pH 5.5 stimulated cAMP, read-out: hGPR68 IC50.
The mark [2] stands for this setting: hGPR68 IC50, HEK293T cells transiently expressing hGPR68, antagonism of pH 5.5 stimulated cAMP.

Like-named read-outs stand apart in the source and are kept apart here. Where only a bound is given, the exact number is not on record here.

T1 sequence (Q15743 whole entry): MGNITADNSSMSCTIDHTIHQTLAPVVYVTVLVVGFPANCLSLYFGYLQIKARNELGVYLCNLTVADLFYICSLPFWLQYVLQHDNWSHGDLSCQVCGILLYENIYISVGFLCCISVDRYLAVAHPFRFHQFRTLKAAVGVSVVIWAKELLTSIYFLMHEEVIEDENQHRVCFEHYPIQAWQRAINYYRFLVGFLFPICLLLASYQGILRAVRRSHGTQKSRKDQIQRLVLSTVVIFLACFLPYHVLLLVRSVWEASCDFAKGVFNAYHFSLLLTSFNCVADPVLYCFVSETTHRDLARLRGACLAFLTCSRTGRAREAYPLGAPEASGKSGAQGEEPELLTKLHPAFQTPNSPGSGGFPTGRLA

Regarding `NC(=O)c1c(C2CC2)nn2c(C(=O)NCc3ccc(F)cc3)ccnc12` [Compound 140, 2-cyclopropyl-N7-[(4-fluorophenyl)methyl]pyrazolo[1,5-a]pyrimidine-3,7-dicarboxamide], the IC50 (in general, the midpoint of a concentration-inhibition curve) under setting [1] is below 50 nM.

Molecule `NC(=O)c1c(CO)nn2c(C(=O)N[C@H]3C[C@@H](OC(F)(F)F)C3)ccnc12` [Compound 141, 2-(hydroxymethyl)-N7-[cis-3-(trifluoromethoxy)cyclobutyl]pyrazolo[1,5-a]pyrimidine-3,7-dicarboxamide] registered an IC50 under setting [2] below 50 nM.

On to `NC(=O)c1c(OCC2CC2)nn2c(C(=O)NC3Cc4ccccc4C3)ccnc12` [Compound 142, 2-(cyclopropylmethoxy)-N7-indan-2-yl-pyrazolo[1,5-a]pyrimidine-3,7-dicarboxamide], for which the IC50 under setting [1] was below 50 nM.

Turning to `COCc1nn2c(C(=O)NC3Cc4ccccc4C3)ccnc2c1C(=O)O` [Compound 143, 7-(indan-2-ylcarbamoyl)-2-(methoxymethyl)pyrazolo[1,5-a]pyrimidine-3-carboxylic Acid], the IC50 under setting [1] lay in the range of 50 to 500 nM.

On to `COCc1nn2c(C(=O)NC3COc4ccc(Br)cc4C3)ccnc2c1C(N)=O` (stereo not shown) [Compound 144, N7-(6-bromochroman-3-yl)-2-(methoxymethyl)pyrazolo[1,5-a]pyrimidine-3,7-dicarboxamide], for which, under setting [1], the IC50 was below 50 nM.

Regarding `CNc1nn2c(C(=O)N[C@H]3C[C@@H](OC(F)(F)F)C3)ccnc2c1C(N)=O` [Compound 145, 2-(methylamino)-N7-[cis-3-(trifluoromethoxy)cyclobutyl]pyrazolo[1,5-a]pyrimidine-3,7-dicarboxamide], under setting [1], the half-maximal inhibitory concentration (IC50) is below 50 nM.

With `COCc1nn2c(C(=S)NC3Cc4ccccc4C3)ccnc2c1C(N)=O` [Compound 148, 7-(indan-2-ylcarbamothioyl)-2-(methoxymethyl)pyrazolo[1,5-a]pyrimidine-3-carboxamide], under setting [1], the half-inhibitory concentration (IC50) was below 50 nM.

`COCc1nn2c(C(=O)NC3Cc4ccccc4C3)ccnc2c1C(N)=S` [Compound 149, 3-carbamothioyl-N-indan-2-yl-2-(methoxymethyl)pyrazolo[1,5-a]pyrimidine-7-carboxamide]: under setting [1], the IC50 was in the range of 50 to 500 nM.

As for `NC(=O)c1c(C2CC2)nc2c(C(=O)NC3CCC(F)(F)CC3)ccnn12` [Compound 150, 2-cyclopropyl-N8-(4,4-difluorocyclohexyl)imidazo[1,2-b]pyridazine-3,8-dicarboxamide], under setting [1], the IC50 is below 50 nM.

With `NC(=O)c1c(C2CC2)nc2c(C(=O)N[C@H]3C[C@@H](OC(F)(F)F)C3)ccnn12` [Compound 151, 2-cyclopropyl-N8-[cis-3-(trifluoromethoxy)cyclobutyl]imidazo[1,2-b]pyridazine-3,8-dicarboxamide], the IC50 under setting [1] is below 50 nM.

With `COCc1nn2c(C(=O)NC3Cc4ccccc4C3(F)F)ccnc2c1C(N)=O` (stereo not shown) [Compound 152, N7-(1,1-difluoroindan-2-yl)-2-(methoxymethyl)pyrazolo[1,5-a]pyrimidine-3,7-dicarboxamide], the IC50 under setting [1] is below 50 nM.

Consider `COCc1nn2c(C(=O)NC3COc4cc(F)cc(F)c43)ccnc2c1C(N)=O` (stereo not shown) [Compound 153, N7-(4,6-difluoro-2,3-dihydrobenzofuran-3-yl)-2-(methoxymethyl)pyrazolo[1,5-a]pyrimidine-3,7-dicarboxamide], for which the IC50 under setting [1] was below 50 nM.

For the molecule `COCc1nn2c(C(=O)NC3(C)CCc4ccccc43)ccnc2c1C(N)=O` (stereo not shown) [Compound 155, 2-(methoxymethyl)-N7-(1-methylindan-1-yl)pyrazolo[1,5-a]pyrimidine-3,7-dicarboxamide], under setting [1], the IC50 lay in the range of 50 to 500 nM.

Turning to `NC(=O)c1c(C2CC2)nn2c(C(=O)NC3CCC(F)(F)CC3)cnnc12` [Compound 156, 7-cyclopropyl-N4-(4,4-difluorocyclohexyl)pyrazolo[5,1-c][1,2,4]triazine-4,8-dicarboxamide], the IC50 under setting [2] was in the range of 50 to 500 nM.

As for `[2H]C([2H])([2H])OCc1nn2c(C(=O)N[C@H]3C[C@@H](OC(F)(F)F)C3)ccnc2c1C(N)=O` [Compound 157, 2-(trideuteriomethoxymethyl)-N7-[cis-3-(trifluoromethoxy)cyclobutyl]pyrazolo[1,5-a]pyrimidine-3,7-dicarboxamide], under setting [1], the IC50 is below 50 nM.

In the case of `NC(=O)c1c(COCF)nn2c(C(=O)N[C@H]3C[C@@H](OC(F)(F)F)C3)ccnc12` [Compound 158, 2-(fluoromethoxymethyl)-N7-[cis-3-(trifluoromethoxy)cyclobutyl]pyrazolo[1,5-a]pyrimidine-3,7-dicarboxamide], under setting [1], the IC50 was below 50 nM.

`CNc1nn2c(C(=O)NC3Cc4ccccc4C3)ccnc2c1C(N)=O` [Compound 159, N7-indan-2-yl-2-(methylamino)pyrazolo[1,5-a]pyrimidine-3,7-dicarboxamide]: under setting [1], the IC50 was below 50 nM.

Take `[2H]C([2H])([2H])OCc1nn2c(C(=O)NC3Cc4cccnc4C3)ccnc2c1C(N)=O` (stereo not shown) [Compound 160, N7-(6,7-dihydro-5H-cyclopenta[b]pyridin-6-yl)-2-(trideuteriomethoxymethyl)pyrazolo[1,5-a]pyrimidine-3,7-dicarboxamide]: under setting [1], the IC50 was below 50 nM.

For the molecule `CNC(=O)c1c(COC)nn2c(C(=O)N[C@H]3C[C@@H](OC(F)(F)F)C3)ccnc12` [Compound 161, 2-(methoxymethyl)-N3-methyl-N7-[cis-3-(trifluoromethoxy)cyclobutyl]pyrazolo[1,5-a]pyrimidine-3,7-dicarboxamide], the IC50 under setting [1] was 500 to 5000 nM.

As to `NC(=O)c1c(OCC2CC2)nn2c(C(=O)N[C@H]3C[C@@H](OC(F)(F)F)C3)ccnc12` [Compound 162, 2-(cyclopropylmethoxy)-N7-[cis-3-(trifluoromethoxy)cyclobutyl]pyrazolo[1,5-a]pyrimidine-3,7-dicarboxamide], the IC50 under setting [1] lay in the range of 50 to 500 nM.

In the case of `NC(=O)c1c(C2CC2)nc2c(C(=O)NC3Cc4cccnc4C3)ccnn12` (stereo not shown) [Compound 163, 2-cyclopropyl-N8-(6,7-dihydro-5H-cyclopenta[b]pyridin-6-yl) imidazo[1,2-b]pyridazine-3,8-dicarboxamide], the IC50 under setting [1] is below 50 nM.

With `COCc1nc2c(C(=O)NC3Cc4cc(F)cc(F)c4C3)ccnn2c1C(N)=O` (stereo not shown) [Compound 164, N8-(4,6-difluoroindan-2-yl)-2-(methoxymethyl)imidazo[1,2-b]pyridazine-3,8-dicarboxamide], under setting [1], the IC50 was below 50 nM.

Turning to `COCc1nn2c(C(=O)NC3Cc4nccn4C3)ccnc2c1C(N)=O` (stereo not shown) [Compound 165, N7-(6,7-dihydro-5H-pyrrolo[1,2-a]imidazol-6-yl)-2-(methoxymethyl)pyrazolo[1,5-a]pyrimidine-3,7-dicarboxamide], the IC50 under setting [1] was in the range of 50 to 500 nM.

For `COCc1nn2c(C(=O)N[C@@H]3CCOc4cc(F)ccc43)ccnc2c1C(N)=O` [Compound 166, N7-[(4R)-7-fluorochroman-4-yl]-2-(methoxymethyl)pyrazolo[1,5-a]pyrimidine-3,7-dicarboxamide], under setting [1], the IC50 was below 50 nM.

For the molecule `COCc1nn2c(C(=O)N[C@@H]3COc4cc(F)ccc43)ccnc2c1C(N)=O` [Compound 167, N7-[(3S)-6-fluoro-2,3-dihydrobenzofuran-3-yl]-2-(methoxymethyl)pyrazolo[1,5-a]pyrimidine-3,7-dicarboxamide], the IC50 under setting [1] is below 50 nM.

In the case of `COCc1nn2c(C(=O)NC3CS(=O)(=O)c4ccccc43)ccnc2c1C(N)=O` (stereo not shown) [Compound 168, N7-(1,1-dioxo-2,3-dihydrobenzothiophen-3-yl)-2-(methoxymethyl)pyrazolo[1,5-a]pyrimidine-3,7-dicarboxamide], under setting [1], the IC50 was below 50 nM.

`COCc1nn2c(C(=O)N[C@H]3COc4c(Cl)cccc43)ccnc2c1C(N)=O` [Compound 169, N7-[(3R)-7-chloro-2,3-dihydrobenzofuran-3-yl]-2-(methoxymethyl)pyrazolo[1,5-a]pyrimidine-3,7-dicarboxamide]: the IC50 under setting [1] is below 50 nM.

`COCc1nn2c(C(=O)NC3Cc4ccncc4C3)ccnc2c1C(N)=O` (stereo not shown) [Compound 170, N7-(6,7-dihydro-5H-cyclopenta[c]pyridin-6-yl)-2-(methoxymethyl)pyrazolo[1,5-a]pyrimidine-3,7-dicarboxamide]: the IC50 under setting [1] was below 50 nM.

For the molecule `COCc1nn2c(C(=O)NC3CCOc4ncccc43)ccnc2c1C(N)=O` (stereo not shown) [Compound 171, N7-(3,4-dihydro-2H-pyrano[2,3-b]pyridin-4-yl)-2-(methoxymethyl)pyrazolo[1,5-a]pyrimidine-3,7-dicarboxamide], the IC50 under setting [1] was in the range of 50 to 500 nM.

For `COCc1nn2c(C(=O)N[C@H]3CCOc4ccccc43)ccnc2c1C(N)=O` [Compound 172, N7-[(4S)-chroman-4-yl]-2-(methoxymethyl)pyrazolo[1,5-a]pyrimidine-3,7-dicarboxamide], the IC50 under setting [1] was in the range of 50 to 500 nM.

Turning to `COCc1nn2c(C(=O)NC3CCOc4cc(F)c(F)cc43)ccnc2c1C(N)=O` (stereo not shown) [Compound 182, N7-(6,7-difluorochroman-4-yl)-2-(methoxymethyl)pyrazolo[1,5-a]pyrimidine-3,7-dicarboxamide], the IC50 under setting [1] is below 50 nM.

With `COCc1nn2c(C(=O)N[C@H]3CCc4ccccc43)ccnc2c1C(N)=O` [Compound 183, 2-(methoxymethyl)-N7-[(1S)-indan-1-yl]pyrazolo[1,5-a]pyrimidine-3,7-dicarboxamide], under setting [1], the IC50 was below 50 nM.

On to `COCc1nn2c(C(=O)NC3COc4ncccc43)ccnc2c1C(N)=O` (stereo not shown) [Compound 184, N7-(2,3-dihydrofuro[2,3-b]pyridin-3-yl)-2-(methoxymethyl)pyrazolo[1,5-a]pyrimidine-3,7-dicarboxamide], for which the IC50 under setting [1] is below 50 nM.

Consider `COCc1nn2c(C(=O)NC3COc4cc(F)cc(F)c4C3)ccnc2c1C(N)=O` (stereo not shown) [Compound 185, N7-(5,7-difluorochroman-3-yl)-2-(methoxymethyl)pyrazolo[1,5-a]pyrimidine-3,7-dicarboxamide], for which the IC50 under setting [1] is 50 to 500 nM.
